Results published in US20020049151A1, “Therapeutic approaches to diseases by suppression of the NURR subfamily of nuclear transcription factors” (priority 2000, published 2002).
“Also recorded” adds a separate entry of the source.

Key:
NOR1 mRNA = assay: Northern analysis of NOR1 mRNA in primary RA synoviocytes; assay type: cell-based, human; conditions: 1 hour, TNFα 10 ng/mL, PGE2 10^-6 M, vs untreated
Method: The pathological importance of the NURR transcription factors in inflammatory joint disease was further examined by determining the ability of proinflammatory agonists to regulate NOR1 transcript levels in primary synoviocytes. (FIG. 14). Expression levels of NOR1 and NURR1 mRNA increased compared to the untreated synoviocytes upon treatment with TNFα.
(§1) Northern analysis of primary RA synoviocytes were untreated (lane 1) or treated for 1 hour with TNFα (lane 2), IL-1β (lane 3), and PGE2 (lane 4). TNFα and IL-1β were used at a concentration of 10 ng/mL and PGE2 was at a concentration of 10^-6 M.
(§2) Total RNA was isolated from cultured primary synoviocytes or synovial explants. RNA was quantitated by UV absorption and 10 μg of total RNA were electrophoresed on a standard northern gel and transferred to nylon membrane (BioRad, Richmond, Calif.). NURR1 and NUR77 cDNA probes (Murphy and Conneely, 1997), spanning the amino terminal region to avoid cross-hybridization, were radiolabeled to a high specific activity using [α-^32P] dCTP and a random primer labeling system (Promega, Madison, Wis.). Blots were exposed to film at −80° C. using intensifying screens and autoradiographic intensity was quantitated using an imaging densitometer.

human CRH promoter = assay: hCRH-CAT reporter, transient transfection in primary human synoviocytes; assay type: cell-based; conditions: -666/+111 hCRH-CAT; RA and PsA synoviocytes; 10 ng/ml IL-1β, IL-6, TNFα, 1 μM PGE2, MoCM; 12 h
Method: To determine whether inflammatory mediators are capable of regulating the expression of the human CRH promoter a reporter construct was generated by cloning the proximal promoter region (−666/+111) (SEQ ID NO: 143) of the human CRH gene into the promoterless pBL3-chloramphenicol acetyl transferase (CAT) plasmid to create hCRH-CAT. Transcriptional regulation of the hCRH promoter was measured by transient transfection in primary human synoviocytes. […] Three individual RA and PsA synoviocyte cell lines were transiently transfected with 3 μg -666 /+111 hCRH-CAT reporter plasmid to monitor CRH promoter activity, maintained under normal conditions (Con), or exposed to 10 ng/ml IL-1β, IL-6, TNFα1 μM PGE2, MoCM or 25 μM FOR for 12 h. […] Representative CAT levels produced by transfected cells are illustrated in FIG. 2B.
Synovial tissue was treated for 4 h with 1 mg/ml collagenase (type I; Worthington Biochemical, Freehold, N.J.) in RPMI at 37° C. in 5% CO2. Dissociated cells were plated in RPMI supplemented with 10% fetal calf serum (GibcoBRL, Paisley, UK), penicillin (100 U/ml), streptomycin (100 U/ml) and fungizone (0.25 μg/ml). […] Twenty-four hours before transfection, 1×10^6 synoviocyte cells were plated in 25 cm^2 dishes and allowed to attach. Endotoxin free-DNA ([…] CMV-β-galactosidase or 3 μg -666/+111 hCRH CAT (Murphy and Conneely, 1997) was added to 35 μl lipotaxi reagent (Stratagene, Cambridge, UK) in a volume of 900 μl RPMI (serum free) and incubated at room temperature for 30 min. RPMI (1.5 ml) was added to the transfection mixture, transferred onto the cells and incubated for 6 h at 37° C. in 5% CO2. An equal volume of media was added, and the cells were incubated overnight at 37° C. in 5% CO2. The DNA-lipotaxi containing media was replaced, and the cells were left untreated or treated with 10 ng/ml IL-1β, IL-6, TNFα, 1 μM PGE2 or MoCM and incubated for a further 24 h. Chloramphenicol acetyl transferase (CAT) levels were measured using a CAT ELISA (Boehringer Mannheim, Germany). Protein concentrations were determined by the Bradford assay (BioRad, Richmond, Calif.). For β-galactosidase assays cells were washed with cold phosphate buffered saline (PBS), fixed with cold 0.5% glutaraldehyde and washed twice with PBS before incubation with staining solution (1M MgCl2, 5M NaCL, 0.5M HEPES pH7.3, 30 mM potassium ferricyanide, 30 mM potassium ferrocyanide and 2% 5-bromo-4-chloro-3-indoyl-β-galactopyranoside) for 12 h at 37° C.

NURR1 mRNA [1] = assay: Northern blot of NURR1 mRNA in primary synoviocytes; assay type: cell-based, human; conditions: for NURR1 mRNA levels after stimulation: 25 μM forskolin, 20 ng/ml PMA, 10 ng/ml TNFα, IL-1β, IL-6, 1 μM PGE2, CRH
Method: Regulation of gene expression by the protein kinase A and C pathways represent important signaling events in RA synoviocytes (Ben-Av et al., 1995; Crofford et al., 1994; Firestein and Manning, 1999). […] To investigate the involvement of the protein kinase C signaling pathways in NURR regulation, synoviocytes were treated with phorbal myristic acetate (PMA). […] In contrast, dexamethasone had little effect on forskolin- or PMA-induced NUR77 levels.
(§3) In FIG. 4 total RNA was extracted and northern blot analysis was performed. Filters were hybridized with a cDNA for NURR1 or NUR77 and also with GAPDH to control for loading and transfer. Synovial explants were left untreated [C] or incubated with 10^−8M CRH for the indicated times. (FIG. 4A) Confluent monolayers of primary synoviocytes were left untreated [C] or pretreated with 10^−8M dexamethasone (DEX) for 2 h prior to the addition of 25μM forskolin (FOR) or 20 ng/ml of phorbal myristic acetate (PMA). (FIG. 4B)
Therefore the pathological importance of the NURR transcription factors in inflammatory joint disease was further examined by determining the ability of pro-inflammatory agonists to regulate NURR transcript levels in primary synoviocytes and synovium explant tissue (FIG. 6).
(§4) For FIG. 6 each membrane was reprobed with a GAPDH cDNA to control for loading and transfer. NURR1 mRNA levels were measured by northern analysis using total RNA extracted from synoviocytes left untreated [C] or cultured for the time indicated with (A) TNFα (10 ng/ml) in the presence or absence of pre-treatment with 10^−8M dexamethasone (DEX). (B) IL-1β(10 ng/ml) in the presence or absence of pretreatment with 2 μM indomethacin (INDO) or 10^−8M DEX. (C) or synovial explants cultured with IL-6 (10 ng/ml). (D) 1 μM PGE2. (E) 25 μM forskolin (FOR) or […] for 1h in the absence or presence of 5 µg/ml cycloheximide (CHX).
as §1, §2

synoviocytes = assay: Synoviocyte morphological transformation (fibroblast-like to stellate); assay type: cell-based, human; conditions: primary PsA synoviocytes, untreated vs TNFα
NURR1 mRNA [2] = assay: Northern blot of NURR1 mRNA in synovium explants; assay type: cell-based, human; conditions: RA and PsA synovium explants; CRH 10^−8 M; IL-6 10 ng/ml
Method: To determine whether the NURR subfamily contribute to CRH signaling in a pathological context, freshly excised RA (FIG. 4A) and PsA synovium explants were incubated with CRH (10^−8 M) and examined for its ability to induce expression of NURR1 and NUR77 transcripts. […] Furthermore, analysis of synovium explants indicates higher endogenous and CRH-inducible NURR1 mRNA compared to NUR77 transcript levels.
as §3, §4, §2

Compound	NOR1 mRNA expression levels (NOR1 mRNA)	transcriptional activity of the hCRH promoter (CAT), fold (human CRH promoter)	NURR1 mRNA levels after stimulation (NURR1 mRNA [1])	effect in stimulating NURR1 mRNA compared with the other agonists (NURR1 mRNA [1]; PGE2 1 μM, 10^-6 M)	synoviocyte morphology after stimulation (synoviocytes)	NURR1 mRNA induction in synovium explants (NURR1 mRNA [2])
CCCCC[C@H](O)/C=C/[C@H]1[C@H](O)CC(=O)[C@@H]1C/C=C\CCCC(=O)O [PGE2, reference compound]	only a moderate increase	28.8+/−1.7 fold	rapid and marked increase	most potent and sustained effect		
TNFα	increased	15.6+/−1.9 fold	rapid and marked increase; also recorded: increased		stellate shape	
IL-6: pro-inflammatory cytokine		3.2+/−1.9 fold	did not significantly induce			rapid and marked increase
IL-1β: pro-inflammatory cytokine		17.1+/−3.1 fold	rapid and marked increase			
